Experiments:
[1] = system: IFN-α; assay: IFN-α ELISA on DRGs incubated ex vivo or cultured with ADU-S100; assay type: cell-based, mouse
Protocol: (§1) ELISA: Mouse high-sensitivity IFN-α ELISA kit (42115-1) and IFN-β ELISA kit (42410-1) were purchased from PBL Assay Science and performed on serum, DRG lysate, or cell culture medium according to the manufacturer's instructions. Serum was obtained from whole blood through cardiac puncture at the time of euthanasia, followed by incubation for 30 minutes at 35° C. to promote clotting. Subsequently, samples were centrifuged at 4° C. at 2,500 xg for 15 minutes, followed by careful isolation of serum (supernatant). For ELISA on cell culture medium, samples were first concentrated approximately 10-fold using Amicon centrifugal filters (Millipore Sigma, UFC8030). DRGs were lysed by mechanical homogenization in a pH 7.4 CHAPS lysis buffer (FivePhoton Biochemicals, CIB-1-7.4-60) supplemented with a protease inhibitor cocktail (Millipore Sigma, 11697498001) and phosphatase inhibitor cocktail (FivePhoton Biochemicals, PIC1). For DRG lysate, Pierce BCA (ThermoFisher, 23225) assays were performed according to the manufacturer's instructions to quantify protein concentration, and ELISA results are reported normalized to protein concentration (pg/mg DRG tissue). To measure IFN-β levels in cerebrospinal fluid (CSF) isolated by spinal catheter from NHPs, we utilized a cynomolgus IFN-β ELISA kit (PBL Assay Science, 46415-1), which was performed using 50 μl CSF according to the manufacturer's instructions. Standard curves were performed in all experiments and values interpolated using GraphPad Prism version.

[2] = system: IFN-β; assay: IFN-β ELISA on DRGs incubated ex vivo or cultured with ADU-S100; assay type: cell-based, mouse; conditions: for IFN-β levels in DRG lysate: ex vivo incubation 30 μM, 2 h
Protocol: as §1

[3] = system: tumor-bearing femora; assay: Microcomputed tomography of tumor-bearing femurs; assay type: in vivo, mouse
Protocol: Microcomputed tomography. Microcomputed tomography (MicroCT) analyses were performed on femurs from tumor inoculated mice or naïve mice using a VivaCT 80 scanner with the 55-kVp source (Scanco, Southeastern, Pa.) as previously described (Wang, C. et al. “NOTCH signaling in skeletal progenitors is critical for fracture repair.” The Journal of Clinical Investigation 126, 1471-1481 (2016); Cao, C. et al. “Increased Ca2+ signaling through CaV1.2 promotes bone formation and prevents estrogen deficiency-induced bone loss.” JCI Insight 2, (2017)). Quantification of microCT data was calculated for distal femurs of mice treated with vehicle or DMXAA. Parameters quantified included bone volume/total volume (BV/TV) and connectivity density (Conn.D) within a region of 100 slides and 200 slides proximal to the distal growth plate.

[4] = system: naïve mice or mice following spared nerve injury (SNI); assay: Repeated i.t. STING agonist administration, nerve injury (SNI) model; assay type: in vivo, mouse
Protocol: Mouse pain models: The chemotherapy-induced peripheral neuropathy (CIPN) model of chronic neuropathic pain was established as we have done previously, using 8-10-week-old CD-1 (strain #022, Charles River) mice injected with paclitaxel (2 mg/kg i.p.) every other day, with 4 injections total. The chronic constriction injury (CCI) model of neuropathic pain was also produced using 8-10-week-old CD-1 under isoflurane anesthesia. Briefly, the right sciatic nerve was exposed above the hip and two ligatures (7-0 Prolene) were placed around the nerve 1 mm apart located proximal to the trifurcation. Ligatures were loosely tied until a subtle flick of the ipsilateral hind limb was observed. CD-1 mice were also used to establish the SNI model, which was generated by tightly ligating the tibial and common peroneal nerves followed by transection and removal of a ˜3 mm portion of the nerve. The sural nerve was left intact and contact or stretching of this nerve was avoided . To establish the syngeneic bone cancer pain (BCP) model, 8-10-week-old C57BL/6J mice (strain #000664, Jackson Labs) were utilized, as the Lewis lung carcinoma cell line LLC1 (LL/2; ATCC CRL-1642) was originally generated in C57BL/6J mice. Mice were anesthetized with isoflurane and the left leg was shaved, disinfected with 10% povidone-iodine, and a 1 cm superficial incision was made to expose the patellar ligament. A 25-gauge needle was inserted at the intercondylar notch of the left femur into the femoral cavity, followed by needle replacement with a 10 μl Hamilton syringe microinjector containing a 2 μl suspension of LLC cells (2×10^5 cells) followed by a 2 μl gelatin sponge solution to enable closure of the injection site. All mice were housed and monitored in accordance with AAALAC standards and Duke IACUC guidelines that pertained to each model.
Reflexive-based sensory testing in mice: All behavioral testing in mice was performed in a specialized humidity- and light-controlled mouse behavior facility maintained at 21-24° C., with testing conducted between the hours of 8:00-16:00. Mice were habituated to the testing environment for at least 2 days prior to baseline testing. All tests were performed by an experimenter who was blinded to experimental conditions, including genotypes and drug treatment. For multi-day experiments using STING agonists, mice were tested in the same room at approximately the same time each day. To measure mechanical sensitivity, mice were confined to individual chambers with non-transparent borders on an elevated mesh rack, preventing mice from visualizing or interacting with one another during the testing period. […] We determined the 50% paw withdrawal threshold using the up-down method. […]

[5] = cultured DRGs from STING-WT mice

Structure (SMILES) | IFN-α in culture medium [1, 5] | increase in IFN-α in STING-KO and STING-cKO DRGs ([1]; ex vivo incubation) | IFN-α levels in DRG lysate ([1]; ex vivo incubation 30 μM, 2 h, WT mice) | IFN-β in culture medium [2, 5] | increase in IFN-β in STING-KO and STING-cKO DRGs ([2]; ex vivo incubation) | IFN-β levels in DRG lysate ([2]; STINGfx/fx, Nav1.8-Cre mice) | IFN-β levels in DRG lysate ([2]; WT mice) | cortical bone volume/total volume (BV/TV) ([3]; d11) | trabecular bone connectivity density (Conn.D) ([3]; d11) | trabecular bone loss and cortical bone lesions (3D reconstruction) ([3]; d11 after tumor implantation) | tolerance on repeated administration ([4]; repeated i.t. 35 nmol, naïve mice or SNI mice) | SNI-induced astrogliosis ([4]; repeated i.t. administration, SNI) | cold allodynia at later timepoints ([4]; repeated i.t., starting at D12) | mechanical allodynia at later timepoints ([4]; repeated i.t., starting at D12)
Nc1ncnc2c1ncn2[C@@H]1O[C@@H]2COP(=O)([S-])O[C@@H]3[C@H](O)[C@@H](COP([O-])(=S)O[C@H]2[C@H]1O)O[C@H]3n1cnc2c(N)ncnc21.[Na+].[Na+] (stereo partly drawn) [ADU-S100, (2′-5′)-[P(R)]-5′-O-[(R)-hydroxymercaptophosphinyl]-P-thioadenylyl-adenosine cyclic dinucleotide] | increased IFN-α and IFN-β in the culture medium | abolished in STING-KO mice and largely abolished in STING-cKO mice | IFN-α levels in DRG lysate were increased | increased IFN-α and IFN-β in the culture medium | abolished in STING-KO mice and largely abolished in STING-cKO mice | significant elevation of IFN-β in STINGfx/fx; Nav1.8-Cre DRG lysate, but this increase was significantly lower than that seen in WT mice | IFN-β levels in DRG lysate were increased |  |  |  |  |  |  | 
Cc1ccc2c(=O)c3cccc(CC(=O)O)c3oc2c1C [DMXAA, 2-(5,6-dimethyl-9-oxo-9H-xanthen-4-yl)acetic acid] |  |  |  |  |  |  |  | increased cortical bone volume/total volume (BV/TV) | higher trabecular bone connectivity density (Conn.D) | less bone cancer-induced trabecular bone loss and fewer cortical bone lesions | did not show signs of tolerance | attenuated SNI-induced astrogliosis | significantly reduced | significantly reduced

Source: patent US20230158057A1, “COMPOSITIONS AND METHODS FOR THE TREATMENT OF PAIN” (Duke University, priority 2020, published 2023)
